Experimental data from patent EP3263134A1, “COMPOSITION FOR PREVENTING OR TREATING VALVE CALCIFICATION, CONTAINING DPP-4 INHIBITOR” (The Asan Foundation, priority 2015, dated 2016).

What was measured:
DPP-4 [1] = settings: stated as known; cited from earlier work
[2] = test system: Human aortic valvular interstitial cells (VICs); experiment: Osteoblast differentiation (osteogenic ability) of human valvular interstitial cells; type: cell-based; settings: human VICs treated with DPP-4 plus sitagliptin (FIG. 11)
Procedure: Using human VICs, the role of DPP-4 in osteoblast differentiation was analyzed.
Human VICs were isolated from aortic valve leaflets according to a conventional cell isolation method, and VIC cells at passage 2 to 10 were used. The VIC cells were incubated with DPP-4 (R & D), sitagliptin or DETA-NONOate (Enzo Life Sciences).

[3] = test system: aortic valves from the eNOS-/- mice; experiment: von Kossa (VK) staining of aortic valve sections; type: in vivo; settings: eNOS-/- mice after administration of sitagliptin (FIGS. 10a, 10b)
Procedure: Human aortic valve samples were fixed in 4% formalin solution for 24 hours, and then embedded in paraffin and sectioned to a thickness of 4 µm. In order to observe calcium deposition in the paraffin-embedded aortic valve and the cardiac basal segment, Von Kossa (VK) staining and Alizarin red (AR) staining were performed. For Von Kossa staining, the aortic valve fixed in formalin was washed with distilled water, and then exposed to 5% water-soluble AgNO3 and intense light at room temperature for 60 minutes.
(§1) C57BL/6J eNOS-/- (endothelial nitric oxide synthase knockout) mice (8-week old, n = 10, The Jackson Laboratory, Bar Harbor, Me, USA) and C57BL/6J wild-type mice (8-week old, wide type, WT, n = 10) were used. After purchase, the mice were fed with standard rodent feed up to 3 months of age, and administered with saline or sitagliptin (15 mg/kg/ day, Merck & Co., Inc.) for 12 weeks.

eNOS-/- mice = experiment: Osteosense680 imaging of aortic calcification / osteogenic activity after oral administration; type: in vivo; settings: oral sitagliptin 15 mg/kg/day for 12 weeks, Osteosense680 imaging (FIGS. 9a, 9b)
Procedure: as §1
To detect osteogenic activity in the eNOS-/- mice, a bisphosphonate-conjugated imaging agent (Osteosense680, VisEn Medical Inc.) was injected via the tail vein. Osteosense680 binds to a calcified site (particularly hydroxyapatite) in vivo and acts as an imaging agent to detect osteoblast activity. The mice were euthanized, and then the whole body or isolated aortas were imaged using OptixMX3 (ART Advanced Research Technologies, Inc).

DPP-4 promoter = DPP-4 promoter activity in VSMCs (luciferase reporter); type: cell-based; settings: wild-type or eNOS-/- mouse VSMCs (FIG. 7c)
Procedure: To obtain more direct evidence for the regulatory function of NO in a decrease in DPP-4 expression, it was determined whether DPP-4 promoter activity would be regulated by NO.
First, VSMCs were cultured in a 6-well plate to reach a confluency of 80%. Using Lipofectamine2000 (Life Technology), a DPP-4 reporter containing a normal or mutated NF-κB binding site was cloned into a pGL3-basic vector (Promega), and the cells were transfected with the vector. After 24 hours, firefly and Renilla luciferase activities in the cells were measured using a Dual-Glo luciferase assay system, (Promega). The firefly luciferase activity was normalized with the Renilla luciferase activity.

NF-κB = NF-κB activity in VSMCs; type: cell-based; settings: wild-type or eNOS-/- mouse VSMCs (FIG. 7d)
Description: NF-κB activity in VSMCs is inhibited by NO. It was shown that NF-κB activity was higher in eNOS-/- mouse VSMCs than in wild-type mouse VSMCs, and this activity was reduced by treatment with DETA-NO (FIG. 7d). Because the DPP4 promoter has a putative NF-κB binding site, the present inventors determined whether NF-κB activity could directly regulate DPP-4 promoter activity.

DPP-4 [4] = experiment: DPP-4 mRNA and protein expression in VSMCs (RT-PCR, immunoblot); type: cell-based, mouse
Procedure: (§2) The aortas, extracted from the eNOS-/- mice and the wild-type mice together with the hearts in Example 2, were washed in serum-free M199 (Cellgro), cut to small pieces, and then cultured in M199 containing 20% fetal calf serum and 3 mg/mL collagenase (Sigma) in a water bath at 37°C for 3 hours. […] The isolated vascular smooth muscle cells were seeded at a concentration of 30%, and after 24 hours, the medium was replaced with osteogenic basal medium (Osteogenic SingleQuots, Lonza, USA). The medium was replaced at 3-day intervals during 28 days of culture.
In this Example, vascular smooth muscle cells obtained according to the method of Example 3 were treated with DETA-NONOate (DETA-NO) that is an NO donor.

[5] = test system: eNOS-/- mouse VSMCs (vascular smooth muscle cells); experiment: ALP activity, inhibition of osteogenic differentiation of VSMCs; type: cell-based; set-up: dose or concentration left out as unconfirmed; settings: of each inhibitor for 7 days, 48-well plate, compared to negative control group not treated with the DPP-4 inhibitor
Procedure: as §2
In order to examine the effects of DPP-4 inhibitors other than sitagliptin on the inhibition of valvular calcification, the effects of treatment with various kinds of DPP-4 inhibitors on the inhibition of osteogenic differentiation of eNOS-/- mouse VSMCs (vascular smooth muscle cells) were evaluated.
eNOS-/- mouse VSMCs cultured in a 48-well plate were treated with […] of each of alogliptin, evogliptin, linaglipin, saxagliptin and vildagliptin for 7 days, and ALP activity in the cells was measured. As a result, ALP activity inhibition of 50% or lower compared to that in a negative control group not treated with the DPP-4 inhibitor was observed.

COC(=O)[C@@H](N)CCCNC(=N)N[N+](=O)[O-] [L-NAME, Nω-nitro-L-arginine methyl ester]
DPP-4 expression in the aorta (DPP-4 [1]): significantly increases DPP-4 expression in the aorta

N[C@@H](CC(=O)N1CCn2c(nnc2C(F)(F)F)C1)Cc1cc(F)c(F)cc1F [sitagliptin]
DPP-4-induced increase of the osteogenic ability of VICs [2]: eliminated | aortic calcification in VK-stained sections of the aortic valves [3]: aortic calcification can be inhibited | aortic calcification in the living mice (eNOS-/- mice): reduced aortic calcification

NCCN(CCN)[N+]([O-])=NO [DETA-NO, DETA-NONOate]
DPP-4 promoter activity (DPP-4 promoter): inhibited by treatment with DETA-NO in a concentration-dependent manner | NF-κB activity (NF-κB): reduced | expression of DPP-4 mRNA in the VSMCs (DPP-4 [4]; RT-PCR after 24 hours of treatment with DETA-NO (FIG. 7a)): decreased | expression of DPP-4 protein in the VSMCs (DPP-4 [4]; immunoblot after 48 hours of treatment with DETA-NO (FIG. 7b)): also decreased

CC(C)(C)OC[C@@H]1C(=O)NCCN1C(=O)C[C@H](N)Cc1cc(F)c(F)cc1F [evogliptin]
ALP activity inhibition [5]: ≤ 50%

N#C[C@@H]1CCCN1C(=O)CNC12CC3CC(CC(O)(C3)C1)C2 [vildagliptin]
ALP activity inhibition [5]: ≤ 50%

Cn1c(=O)cc(N2CCC[C@@H](N)C2)n(Cc2ccccc2C#N)c1=O [alogliptin]
ALP activity inhibition [5]: ≤ 50%

N#C[C@@H]1C[C@@H]2C[C@@H]2N1C(=O)[C@@H](N)C12CC3CC(CC(O)(C3)C1)C2 [saxagliptin]
ALP activity inhibition [5]: ≤ 50%

CC#CCn1c(N2CCC[C@@H](N)C2)nc2c1c(=O)n(Cc1nc(C)c3ccccc3n1)c(=O)n2C [linaglipin]
ALP activity inhibition [5]: ≤ 50%
